{
  "source": "patent US4874869A",
  "about": "“Hydantoin derivatives and medicines containing the same” (Eisai Co., Ltd., priority 1980, dated 1989)",
  "key": {"[1]": {"system": "sorbitol accumulation in the lens and the sciatic nerve", "test": "Reduction or inhibition of sorbitol accumulation in the lens and the sciatic nerve of streptozotocin-induced diabetic rats", "assay_type": "in vivo, rat", "settings": "vs no compound", "protocol": "The compounds listed in Tables 1 and 2 were tested for the ability to reduce or inhibit the accumulation of sorbitol in the lens and the sciatic nerve of streptozotocin-induced diabetic rats by the method of M. J. Peterson et al., [Metabolism, Vol. 28, No. 4, Supply. 1 (April), 456-461 (1979)]. […] In this experiment, the amount of sorbitol accumulation in the lens and the sciatic nerve of the rat was measured 28 hours after induction of diabetes.\nThe compounds listed in Tables 1 and 2 were orally administered at, the dose levels indicated in the Tables, 4, 8 and 25 hours after the administration of the streptozotocin."}, "[2]": {"system": "cataract formation in galactosemic rats", "test": "Effect on cataract formation in galactosemic rats (visual observation of lenticular opacities)", "assay_type": "in vivo, male Sprague-Dawley rats", "settings": "for lenticular opacities, number with grade ++ / lenticular opacities, number with grade +++: 1 mg/kg oral once a day; for lenticular opacities, number with grade ++ / lenticular opacities, number with grade +++ / lenticular opacities, number with grade + / lenticular opacities, number with grade - (no opacity): 16th day, total 6", "protocol": "(§1) On the 16th day of the study (24 hours after the final administration) lenticular opacities were observed, and then the lens and the sciatic nerve were enucleated to determine the content of carbohydrates.\nThe abscissa in FIG. 1 indicates the number of days from the beginning of feeding of a 30% galactose diet, and the ordinate indicates the percentages of appearance of the cataract.\nIn Table 3, a symbol - represents the case of no opacity and +, ++, +++ show the grade of the opacity, respectively."}, "[3]": {"system": "galactitol accumulation in the lens and the sciatic nerve", "test": "Inhibition of galactitol accumulation in the lens and the sciatic nerve of galactosemic rats", "assay_type": "in vivo, male Sprague-Dawley rats", "settings": "16th day", "protocol": "as §1"}, "aldose reductase": {"target": "T1, aldose reductase (Bos taurus, UniProt P16116)", "T1 construct": "Aldose reductase was prepared by the method of Hayman et al; from tissue", "test": "Inhibition effect on aldose reductase", "assay_type": "biochemical", "protocol": "Aldose reductase was prepared by the method of Hayman et al. [S. Hayman and K.K. Kinoshita; Journal of Biological Chemistry, Vol. 240, p."}},
  "data": [
    {"smiles": "O=C1NC(=O)C2(CCOc3ccc(F)cc32)N1", "note": "(centres unmarked) [6-fluoro-spiro-[chroman-4,4'-imidazolidine]-2',5'-dione, reference compound]", "values": [
      {"measurement": "Inhibition of sorbitol accumulation", "setting": "[1]; lens, 0.2 mg/kg oral, 4, 8 and 25 h after streptozotocin", "value": -29, "unit": "%"},
      {"measurement": "Inhibition of sorbitol accumulation", "setting": "[1]; lens, 1 mg/kg oral, 4, 8 and 25 h after streptozotocin", "value": 41, "unit": "%"},
      {"measurement": "Inhibition of sorbitol accumulation", "setting": "[1]; lens, 5 mg/kg oral, 4, 8 and 25 h after streptozotocin", "value": 62, "unit": "%"},
      {"measurement": "Inhibition of sorbitol accumulation", "setting": "[1]; lens, 10 mg/kg oral, 4, 8 and 25 h after streptozotocin", "value": 77, "unit": "%"},
      {"measurement": "Inhibition of sorbitol accumulation", "setting": "[1]; sciatic nerve, 0.2 mg/kg oral, 4, 8 and 25 h after streptozotocin", "value": 26, "unit": "%"},
      {"measurement": "Inhibition of sorbitol accumulation", "setting": "[1]; sciatic nerve, 1 mg/kg oral, 4, 8 and 25 h after streptozotocin", "value": 15, "unit": "%"},
      {"measurement": "Inhibition of sorbitol accumulation", "setting": "[1]; sciatic nerve, 5 mg/kg oral, 4, 8 and 25 h after streptozotocin", "value": 67, "unit": "%"},
      {"measurement": "Inhibition of sorbitol accumulation", "setting": "[1]; sciatic nerve, 10 mg/kg oral, 4, 8 and 25 h after streptozotocin", "value": 88, "unit": "%"},
      {"measurement": "lenticular opacities on the 16th day (in words)", "setting": "[2]; 25 mg/kg oral once a day", "value": "lenticular opacities were not observed"},
      {"measurement": "lenticular opacities, number with grade ++", "setting": "[2]; left", "value": 3},
      {"measurement": "lenticular opacities, number with grade +++", "setting": "[2]; left", "value": 3},
      {"measurement": "lenticular opacities, number with grade +", "setting": "[2]; left, 5 mg/kg oral once a day", "value": 4},
      {"measurement": "lenticular opacities, number with grade - (no opacity)", "setting": "[2]; left, 5 mg/kg oral once a day", "value": 2},
      {"measurement": "lenticular opacities, number with grade - (no opacity)", "setting": "[2]; left, 25 mg/kg oral once a day", "value": 6},
      {"measurement": "lenticular opacities, number with grade ++", "setting": "[2]; right", "value": 2},
      {"measurement": "lenticular opacities, number with grade +++", "setting": "[2]; right", "value": 4},
      {"measurement": "lenticular opacities, number with grade +", "setting": "[2]; right, 5 mg/kg oral once a day", "value": 4},
      {"measurement": "lenticular opacities, number with grade - (no opacity)", "setting": "[2]; right, 5 mg/kg oral once a day", "value": 2},
      {"measurement": "lenticular opacities, number with grade - (no opacity)", "setting": "[2]; right, 25 mg/kg oral once a day", "value": 6},
      {"measurement": "Inhibition of galactitol accumulation", "setting": "[3]; lens, 1 mg/kg oral once a day", "value": -11, "unit": "%"},
      {"measurement": "Inhibition of galactitol accumulation", "setting": "[3]; lens, 5 mg/kg oral once a day", "value": 5, "unit": "%"},
      {"measurement": "Inhibition of galactitol accumulation", "setting": "[3]; lens, 25 mg/kg oral once a day", "value": 22, "unit": "%"},
      {"measurement": "Inhibition of galactitol accumulation", "setting": "[3]; sciatic nerve, 1 mg/kg oral once a day", "value": 1, "unit": "%"},
      {"measurement": "Inhibition of galactitol accumulation", "setting": "[3]; sciatic nerve, 5 mg/kg oral once a day", "value": -12, "unit": "%"},
      {"measurement": "Inhibition of galactitol accumulation", "setting": "[3]; sciatic nerve, 25 mg/kg oral once a day", "value": 17, "unit": "%"},
      {"measurement": "Inhibition on aldose reductase", "setting": "aldose reductase; 3 × 10^-6 (M)", "value": 78, "unit": "%"},
      {"measurement": "Inhibition on aldose reductase", "setting": "aldose reductase; 3 × 10^-7 (M)", "value": 17, "unit": "%"},
      {"measurement": "Inhibition on aldose reductase", "setting": "aldose reductase; 10^-6 (M)", "value": 53, "unit": "%"},
      {"measurement": "Inhibition on aldose reductase", "setting": "aldose reductase; 10^-7 (M)", "value": 2, "unit": "%"}
    ]}
  ]
}
